Assay results taken from ChEMBL document CHEMBL4402510, “Caprazamycins: Promising lead structures acting on a novel antibacterial target MraY” (Eur J Med Chem, 2019).
Values after ≈ are worked out from the molar mass of the structure shown.

How the values were obtained:
Type in all cases: functional
[1] = tested on: Mycobacterium tuberculosis; assay: Antibacterial activity against Mycobacterium tuberculosis Kurono
[2] = tested on: Mycobacterium tuberculosis; assay: Antibacterial activity against Mycobacterium tuberculosis H37Rv
Staphylococcus aureus [3] = assay: Antibacterial activity against Staphylococcus aureus FDA 209P
[4] = tested on: Mycobacterium tuberculosis; assay: Antibacterial activity against Mycobacterium tuberculosis JCM 6384
Staphylococcus aureus [5] = assay: Antibacterial activity against methicillin resistant Staphylococcus aureus No. 5
[6] = Antibacterial activity against Mycobacterium avium subsp. avium ATCC 25291
Mycolicibacterium vaccae = assay: Antibacterial activity against Mycobacterium vaccae ATCC 15483
Mycolicibacterium phlei = assay: Antibacterial activity against Mycobacterium phlei
Escherichia coli = assay: Antibacterial activity against Escherichia coli K-12
Staphylococcus aureus [7] = assay: Antibacterial activity against methicillin resistant Staphylococcus aureus MS16526
[8] = tested on: Mycolicibacterium smegmatis; assay: Antibacterial activity against Mycobacterium smegmatis ATCC 607
[9] = tested on: Mycobacterium avium subsp. paratuberculosis; assay: Antibacterial activity against Mycobacterium avium subsp. paratuberculosis ATCC 43015
Bacillus subtilis = assay: Antibacterial activity against Bacillus subtilis PCI 219
Streptococcus pneumoniae = assay: Antibacterial activity against Streptococcus pneumoniae PCI 602

Structure (SMILES) | MIC [1] [µg/mL] | MIC [2] [µg/mL] | MIC (Staphylococcus aureus [3]) [µg/mL] | MIC [4] [µg/mL] | MIC (Staphylococcus aureus [5]) [µg/mL] | MIC [6] [µg/mL] | MIC (Mycolicibacterium vaccae) [µg/mL] | MIC (Mycolicibacterium phlei) [µg/mL] | MIC (Escherichia coli) [µg/mL] | MIC (Staphylococcus aureus [7]) [µg/mL] | MIC [8] [µg/mL] | MIC [9] [µg/mL] | MIC (Bacillus subtilis) [µg/mL] | MIC (Streptococcus pneumoniae) [µg/mL]
CCCCCCCNC(=O)C1=CCN(C)[C@@H]([C@H](O[C@@H]2O[C@H](CN)[C@@H](O)[C@H]2O)[C@H]2O[C@@H](n3ccc(=O)[nH]c3=O)[C@H](O)[C@@H]2O)C(=O)N1C | 1.56 (≈ 2.38 µM) | 3.13 (≈ 4.78 µM) | 6.25 (≈ 9.55 µM) | 50 (≈ 76.4 µM) | > 100 | 25 (≈ 38.2 µM) | > 100 | > 100 | > 100 | > 100 | 25 (≈ 38.2 µM) | 25 (≈ 38.2 µM) | > 100 | > 100
CCCCCCCCCCCNC(=O)C1=CCN(C)[C@@H]([C@H](O[C@@H]2O[C@H](CN)[C@@H](O)[C@H]2O)[C@H]2O[C@@H](n3ccc(=O)[nH]c3=O)[C@H](O)[C@@H]2O)C(=O)N1C | 1.56 (≈ 2.19 µM) | 1.56 (≈ 2.19 µM) | 6.25 (≈ 8.79 µM) | 0.2 (≈ 0.281 µM) | 25 (≈ 35.2 µM) | 3.13 (≈ 4.4 µM) | 1.56 (≈ 2.19 µM) | 0.39 (≈ 0.549 µM) | > 100 | 12.5 (≈ 17.6 µM) | < 0.2 | 0.2 (≈ 0.281 µM) | 0.39 (≈ 0.549 µM) | 50 (≈ 70.3 µM)
CN1C(=O)[C@H]([C@H](O[C@@H]2O[C@H](CN)[C@@H](O)[C@H]2O)[C@H]2O[C@@H](n3ccc(=O)[nH]c3=O)[C@H](O)[C@@H]2O)N(C)CC=C1C(=O)NC1CCCCCCCCCCC1 | 1.56 (≈ 2.16 µM) | 1.56 (≈ 2.16 µM) | 100 (≈ 138 µM) | < 0.05 | > 100 | 3.13 (≈ 4.33 µM) | 25 (≈ 34.6 µM) | 6.25 (≈ 8.65 µM) | > 100 | > 100 | 3.13 (≈ 4.33 µM) | 0.05 (≈ 0.0692 µM) | 1.56 (≈ 2.16 µM) | > 100
CCCCc1ccc(NC(=O)C2=CCN[C@@H]([C@H](O[C@@H]3O[C@H](CN)[C@@H](O)[C@H]3O)[C@H]3O[C@@H](n4ccc(=O)[nH]c4=O)[C@H](O)[C@@H]3O)C(=O)N2C)cc1 | 1.56 (≈ 2.31 µM) | 1.56 (≈ 2.31 µM) | 25 (≈ 37.1 µM) | 0.2 (≈ 0.296 µM) | 100 (≈ 148 µM) | 1.56 (≈ 2.31 µM) | 50 (≈ 74.1 µM) | 12.5 (≈ 18.5 µM) | > 100 | 100 (≈ 148 µM) | 6.25 (≈ 9.26 µM) | 0.39 (≈ 0.578 µM) | 3.13 (≈ 4.64 µM) | 50 (≈ 74.1 µM)
CN1C(=O)[C@H]([C@H](O[C@@H]2O[C@H](CN)[C@@H](O)[C@H]2O)[C@H]2O[C@@H](n3ccc(=O)[nH]c3=O)[C@H](O)[C@@H]2O)N(C)CC=C1C(=O)Nc1ccc(C2CCCCC2)cc1 | 1.56 (≈ 2.18 µM) | 1.56 (≈ 2.18 µM) | 100 (≈ 140 µM) | 0.39 (≈ 0.546 µM) | 100 (≈ 140 µM) | 1.56 (≈ 2.18 µM) | 25 (≈ 35 µM) | 12.5 (≈ 17.5 µM) | 6.25 (≈ 8.74 µM) | 0.39 (≈ 0.546 µM) | 1.56 (≈ 2.18 µM) | 0.78 (≈ 1.09 µM) | 100 (≈ 140 µM) | 12.5 (≈ 17.5 µM)
CCCCCCCCCCCCCCCNC(=O)C1=CCN(C)[C@@H]([C@H](O[C@@H]2O[C@H](CN)[C@@H](O)[C@H]2O)[C@H]2O[C@@H](n3ccc(=O)[nH]c3=O)[C@H](O)[C@@H]2O)C(=O)N1C | 1.56 (≈ 2.03 µM) | 1.56 (≈ 2.03 µM) | < 0.2 | 1.56 (≈ 2.03 µM) | > 100 | 3.13 (≈ 4.08 µM) | 6.25 (≈ 8.15 µM) | 6.25 (≈ 8.15 µM) | 1.56 (≈ 2.03 µM) | 50 (≈ 65.2 µM) | 1.56 (≈ 2.03 µM) | 0.78 (≈ 1.02 µM) | 1.56 (≈ 2.03 µM) | 3.13 (≈ 4.08 µM)
CCCCCCCCNC(=O)C1=CCN(C)[C@@H]([C@H](O[C@@H]2O[C@H](CN)[C@@H](O)[C@H]2O)[C@H]2O[C@@H](n3ccc(=O)[nH]c3=O)[C@H](O)[C@@H]2O)C(=O)N1C | 0.78 (≈ 1.17 µM) | 3.3 (≈ 4.93 µM) | 100 (≈ 150 µM) | 12.5 (≈ 18.7 µM) | 3.13 (≈ 4.68 µM) | 3.13 (≈ 4.68 µM) | 100 (≈ 150 µM) | 100 (≈ 150 µM) | > 100 | > 100 | 6.25 (≈ 9.35 µM) | 25 (≈ 37.4 µM) | > 100 | > 100
CCCCCCCCCCCCCNC(=O)C1=CCN(C)[C@@H]([C@H](O[C@@H]2O[C@H](CN)[C@@H](O)[C@H]2O)[C@H]2O[C@@H](n3ccc(=O)[nH]c3=O)[C@H](O)[C@@H]2O)C(=O)N1C | 1.56 (≈ 2.11 µM) | 1.56 (≈ 2.11 µM) | 3.13 (≈ 4.24 µM) | 0.2 (≈ 0.271 µM) | 6.25 (≈ 8.46 µM) | 3.13 (≈ 4.24 µM) | 0.78 (≈ 1.06 µM) | 0.78 (≈ 1.06 µM) | 100 (≈ 135 µM) | 3.13 (≈ 4.24 µM) | 0.39 (≈ 0.528 µM) | 0.1 (≈ 0.135 µM) | 0.39 (≈ 0.528 µM) | 6.25 (≈ 8.46 µM)
CCCCCCCCCCNC(=O)C1=CCN(C)[C@@H]([C@H](O[C@@H]2O[C@H](CN)[C@@H](O)[C@H]2O)[C@H]2O[C@@H](n3ccc(=O)[nH]c3=O)[C@H](O)[C@@H]2O)C(=O)N1C | 1.56 (≈ 2.24 µM) | 1.56 (≈ 2.24 µM) | 0.78 (≈ 1.12 µM) | 0.78 (≈ 1.12 µM) | > 100 | 0.39 (≈ 0.56 µM) | 50 (≈ 71.8 µM) | 25 (≈ 35.9 µM) | > 100 | > 100 | 6.25 (≈ 8.97 µM) | 6.25 (≈ 8.97 µM) | > 100 | > 100
CCCCCCCCCCCCCCNC(=O)C1=CCN(C)[C@@H]([C@H](O[C@@H]2O[C@H](CN)[C@@H](O)[C@H]2O)[C@H]2O[C@@H](n3ccc(=O)[nH]c3=O)[C@H](O)[C@@H]2O)C(=O)N1C | 1.56 (≈ 2.07 µM) | 1.56 (≈ 2.07 µM) | 3.13 (≈ 4.16 µM) | 0.39 (≈ 0.518 µM) | 6.25 (≈ 8.3 µM) | 3.13 (≈ 4.16 µM) | 1.56 (≈ 2.07 µM) | 0.78 (≈ 1.04 µM) | > 100 | 3.13 (≈ 4.16 µM) | 1.56 (≈ 2.07 µM) | 0.39 (≈ 0.518 µM) | 0.2 (≈ 0.266 µM) | 12.5 (≈ 16.6 µM)
CCCCCCCCCNC(=O)C1=CCN(C)[C@@H]([C@H](O[C@@H]2O[C@H](CN)[C@@H](O)[C@H]2O)[C@H]2O[C@@H](n3ccc(=O)[nH]c3=O)[C@H](O)[C@@H]2O)C(=O)N1C | 0.78 (≈ 1.14 µM) | 1.56 (≈ 2.28 µM) | 6.25 (≈ 9.15 µM) | 0.2 (≈ 0.293 µM) | 50 (≈ 73.2 µM) | 1.56 (≈ 2.28 µM) | 12.5 (≈ 18.3 µM) | 3.13 (≈ 4.58 µM) | > 100 | 50 (≈ 73.2 µM) | 0.78 (≈ 1.14 µM) | 0.2 (≈ 0.293 µM) | 1.56 (≈ 2.28 µM) | > 100
CCCCCNC(=O)C1=CCN(C)[C@@H]([C@H](O[C@@H]2O[C@H](CN)[C@@H](O)[C@H]2O)[C@H]2O[C@@H](n3ccc(=O)[nH]c3=O)[C@H](O)[C@@H]2O)C(=O)N1C | 6.25 (≈ 9.97 µM) | 12.5 (≈ 19.9 µM) | 25 (≈ 39.9 µM) | 100 (≈ 160 µM) | > 100 | 100 (≈ 160 µM) | > 100 | > 100 | > 100 | > 100 | 100 (≈ 160 µM) | 100 (≈ 160 µM) | > 100 | > 100
CCCCCCCCCCCCCCCCCCOC(=O)C1=CCN(C)[C@@H]([C@H](O[C@@H]2O[C@H](CN)[C@@H](O)[C@H]2O)[C@H]2O[C@@H](n3ccc(=O)[nH]c3=O)[C@H](O)[C@@H]2O)C(=O)N1C | 3.13 (≈ 3.86 µM) | 6.25 (≈ 7.72 µM) | 25 (≈ 30.9 µM) | 6.25 (≈ 7.72 µM) | 50 (≈ 61.7 µM) | 12.5 (≈ 15.4 µM) | > 100 | > 100 | > 100 | 50 (≈ 61.7 µM) | > 100 | 3.13 (≈ 3.86 µM) | 3.13 (≈ 3.86 µM) | > 100
